From US8507463B2, “Nucleotide analogue prodrug and the preparation thereof” (Jiangsu Chia Tai Tianqing Pharmaceutical Co., Ltd., priority 2005, dated 2013)
Like-named read-outs stand apart in the source and are kept apart here.

Assays:
[1] = system: BEAGLE dogs; experiment: Long term toxicity test (kidney function); assay type: in vivo; settings: 6 months
Description: BEAGLE dogs as animal models, Adefovir Dipivoxil as control sample, long term toxicity of TD crystalline form A was investigated, especially the effects of TD crystalline form A on kidney function was investigated.
30 BEAGLE dogs were randomly divided into 5 groups, 6 dogs per group. One group as blank control group, three groups as low dosing, medium dosing and high dosing group of TD crystalline form A respectively. The dosage of low dosing group was 5 mg/kg once per day, the dosage of medium dosing group was 15 mg/kg once per day and the dosage of high dosing group was 45 mg/kg once per day. The remaining group was Adefovir Dipivoxil control group, dosed at 40 mg/kg once per day.
Drugs mixed with salad oil were administered to the animals for 6 months consecutively, then observed for 21 consecutive days after drug withdrawal.

[2] = system: Duck Hepatitis B Virus; experiment: Anti-viral (anti-HBV) test in vivo, DHBV-DNA level by PCR; design: species or system GaoYou pockmark ducks; settings: ducks, 15 mg/ml group, once a day; day 0 level as base line of 100
Description: Two-month old pockmark ducks vertically infected with Duck Hepatitis B Virus were selected as animal models to conduct anti-HBV test in vivo, the efficacy was investigated. 80 GaoYou pockmark ducks were divided randomly into. 8 groups, 10 ducks per groups, three groups were given TD fumarate at the dosage of 5, 15, 45 mg/kg once a day respectively, other three groups were given Tenofovir Disoproxil Fumarate at the dosage of 5, 15, 45 mg/kg once a day respectively, other one group was given Adefovir Dipivoxil at the dosage of 15 mg/kg once a day and the remaining group was blank control group. All the groups were administered for 28 days, and blood samples were taken every 7 days to determine the inhibitory effect to the DHBV-DNA level by PCR, inhibition rate was listed in the following table.

[3] = human, cited from earlier work
[4] = High temperature test (60° C.); assay type: physicochemical; settings: sealed ampoules
Description: Samples were sealed in clean glass ampoules and put in 60° C. thermostatic drying chamber, then they were taken on the fifth and tenth day respectively for determination, compared with the result of day 0, results were listed in the table below:
Samples were sealed in clean glass ampoules and put in 60° C. thermostatic drying chamber, then they were taken on the fifth and tenth day respectively for determination, compared with the result of day 0, results were listed in the table below

[5] = Light exposure test (4500±500 Lx); assay type: physicochemical; settings: light 4500±500 Lx
From the text: Samples were evenly spread out and placed in open culture dishes and the thickness thereof was less than 5 mm, then distances were adjusted until the illumination intensity was 4500±500 Lx, samples were taken on the fifth and tenth day respectively for determination, compared with the result of day 0, results were listed in the table below: […]

[6] = Acceleration test (40° C., relative humidity 75%); assay type: physicochemical
Description: Samples were sealed with polyethylene plastic bags, placed in the thermostatic drying chamber at 40±2° C. with relative humidity of 75±5% for 3 months. Then the samples were taken at the end of the first, second and third month respectively for determination, compared with the result of day 0, results were listed in the table below: […]

[7] = High humidity test (room temperature, relative humidity 75±5%); assay type: physicochemical; settings: 25° C.
Description: Samples were evenly spread out and placed in open culture dishes, wherein the thickness thereof was less than 5 mm, put in a thermostatic drying chamber at room temperature (25° C.) with relative humidity of 75±5%. Then the samples were taken on the fifth and tenth day respectively for determination, compared with the result of day 0, results were listed in the table below

[8] = Stability analysis, overall conclusion in words; assay type: physicochemical; settings: from light, high temperature, high humidity and acceleration tests
[9] = assay type: physicochemical
[10] = Acute toxicity test, median lethal dose (LD50); settings: both sexes, mouse, in vivo, oral, mice, infused into the stomach, observed 14 days
Description: TD fumarate and TD crystalline form A were dissolved in 0.1M citric acid aqueous solution respectively, 140 healthy mice with 18˜22 g body-weight was selected, randomly divided into 14 groups, 10 per group, and the number of male and female mice were equal.
Following the preliminary test, TD fumarate and TD crystalline form A were administered to 7 different dosing groups by infusing into the stomach, observed for 14 days consecutively to investigate the toxic reaction and death cases of mice and then LD50 was calculated.

[11] = BEAGLE dogs, 40 mg/kg once per day

CC(C)(C)C(=O)OCOP(=O)(COCCn1cnc2c(N)ncnc21)OCOC(=O)C(C)(C)C [Adefovir Dipivoxil]
levels of serum carnine and urea nitrogen, in words [1, 11]: significantly higher | urea nitrogen [1, 11]: 24.7 ± 1.35 mmol/L | DHBV-DNA level, First week [2]: 85 ± 7 | DHBV-DNA level, Fourth week [2]: 33 ± 6 | DHBV-DNA level, Second week [2]: 70 ± 6 | DHBV-DNA level, Third week [2]: 55 ± 7 | adverse reaction and renal dysfunction ([3]; 50 mg/day and 30 mg/day): higher incidence | nephrotoxicity in clinical trials ([3]; recent clinical trials): observed

C[C@H](Cn1cnc2c(N)ncnc21)OCP(=O)(OCOC(=O)C(C)(C)C)OCOC(=O)C(C)(C)C [TD crystalline form A, 9-[2-(R)-[bis[pivaloyloxymethoxy]-phosphinylmethoxy]propyl]adenine]
content (%) ([4]; day 0): 99.1% | content (%) ([4]; day 5): 98.6% | content (%) ([4]; day 10): 98.4% | urea nitrogen ([1]; BEAGLE dogs, 5 mg/kg once per day): 17.1 ± 1.32 mmol/L | urea nitrogen ([1]; BEAGLE dogs, 15 mg/kg once per day): 14.2 ± 1.20 mmol/L | urea nitrogen ([1]; BEAGLE dogs, 45 mg/kg once per day): 15.7 ± 1.08 mmol/L | hematological, blood and urine biochemical parameters versus blank control group, in words ([1]; BEAGLE dogs, 5, 15 and 45 mg/kg once per day): no significant differences | content (%) ([5]; day 0): 98.7% | content (%) ([5]; day 5): 98.3% | content (%) ([5]; day 10): 98.5% | content (%) ([6]; end of month 1): 93.1% | content (%) ([6]; end of month 2): 90.5% | content (%) ([6]; end of month 3): 86.3% | content (%) ([6]; month 0): 99.7% | content (%) ([7]; day 0): 99.7% | Weight gain after moisture absorption (%) ([7]; day 5): 4.3% | content (%) ([7]; day 5): 98.5% | Weight gain after moisture absorption (%) ([7]; day 10): 5.6% | content (%) ([7]; day 10): 97.2% | stability, overall conclusion in words [8]: good stabilities | solubility conclusion, 0.1N HCl ([9]; 0.1N HCl): soluble | solubility conclusion, 0.1N NaOH ([9]; 0.1N NaOH): slightly | solubility conclusion, anhydrous ethanol ([9]; anhydrous ethanol): freely soluble | solubility conclusion, methanol ([9]; methanol): freely soluble | amount of solvent (ml), 0.1N HCl ([9]; to dissolve 1 g of sample, 0.1N HCl): 33.5 mL | amount of solvent (ml), 0.1N NaOH ([9]; to dissolve 1 g of sample, 0.1N NaOH): 910 mL | amount of solvent (ml), anhydrous ethanol ([9]; to dissolve 1 g of sample, anhydrous ethanol): 5.0 mL | amount of solvent (ml), methanol ([9]; to dissolve 1 g of sample, methanol): 1.4 mL | amount of solvent (ml), water ([9]; to dissolve 1 g of sample, water): 880 mL | solubility conclusion, water ([9]; water): soluble | LD50 at 14 days ([10]; read-out: LD50): 4310 mg/kg | LD50 at 14 days ([10]; read-out: LD50, 95% confident limit): 2830 to 5440 mg/kg
